In patent publication US11167015B2, “Arginine and its use as a T cell modulator” (INSTITUTE FOR RESEARCH IN BIOMEDICINE, priority 2016, dated 2021):

What was measured:
B16.OVA melanoma = assay: Tumor experiment: in vivo priming of T cells, oral L-arginine; parameters: species or system C57BL/6 mice; conditions: mice fed with L-arginine 1.5 mg/g body weight daily vs PBS
Protocol: B16-OVA melanoma cells were cultured and injected into Wt C57BL/6 mice as described above. Five clays post injection, when tumors were very small, mice were γ-irradiated (5 Gy) and 24 hours later they received 4×10^5 OT-I cells intravenously (i.v.). The clay after mice were immunized intraperitoneally (i.p.) with […] peptide (OVA257-264) in Inject Alum Adjuvant (Thermo Fisher Scientific). L-Arg (1.5 g/Kg body weight) or PBS, as control, was daily orally administrated, starting one clay before T cell transfer and until the end of the experiment. The size of tumors was measured in a blinded fashion using calipers.

activated CD4+ T cells = assay: IL-2 withdrawal assay and assessment of cell viability, CD4+ T cells; type: cell-based, human
Protocol: Naïve CD4 T cells were activated with plate-bound CD3 and CD28 antibodies. 48 h after activation IL-2 was added to culture media (500 U ml^−1). After a further 3 days of culturing, cells were washed, counted and equal cell numbers were plated in medium devoid of IL-2. The withdrawal medium was no longer supplemented with e.g. L-arginine. Cell viability was assessed with annexin V.

human naïve CD4+ T cells = assay: CCR7 expression by flow cytometry; type: cell-based; conditions: day 10 after activation, L-arginine supplemented vs control cultures
Protocol: FIG. 4. L-arginine limits human T cell differentiation and endows cells with a high survival capacity in vitro. (A, B) Human naïve CD4^+ T cells were activated in L-Arg medium or Ctrl medium in the presence of 10 ng/ml IL-12. IFN-γ was quantified in culture supernatants after 5 days (A) or after re-activation for 5 h with PMA/Ionomycin (B); n=9 from three donors. (C) Naïve CD4^+ T cells were labeled with CellTrace Violet (CTV) and activated in L-Arg medium or Ctrl medium. On day 10, proliferating CTV^lo T cells were stained with an antibody to CCR7 and analyzed by flow cytometry; n=15 from three donors. (D) Naïve CD4^+ T cells were activated for 5 days in L-Arg or Ctrl medium in the presence of exogenous IL-2, washed extensively and cultured in Ctrl medium in the absence of IL-2. Shown is the percentage of living T cells as determined by Annexin V staining at different time points after IL-2 withdrawal. One representative experiment out of three performed. (E) Same experiment as in (D). Shown is the difference of living activated CD4^+ and CD8^+ T cells 5 days after withdrawal of IL-2; n=46, from sixteen donors (CD4^+ T cells); n=13, from four donors (CD8^+ T cells). […] (K) Effect of norNOHA and BEC on proliferation of CTV-labeled naïve T cells measured 72 h after activation. *p<0.05, **p<0.01, ***p<0.001, ****p<0.0001 (Student's t-test).

N=C(N)NCCC[C@H](N)C(=O)O [L-arginine]
anti-tumor response of OT-I T cells primed in vivo (B16.OVA melanoma): superior in mediating an anti-tumor response
time of addition after T cell activation at which most effective on survival (activated CD4+ T cells; L-Arg 3 mM added at indicated time points): ≤ 48 h
survival of activated CD4+ T cells in the absence of exogenous cytokines (activated CD4+ T cells; metabolites 3 mM, except for spermidine 0.1 mM, 5 days after IL-2 withdrawal): significantly increased
fraction of proliferating CCR7+ T cells (human naïve CD4+ T cells): higher fraction
